Tests used:
Type in all cases: physicochemical
[1] = Description (appearance) of tablets on storage
Description: (§1) Tablets of ansolvate form D, were packaged with and without desiccant (Sorb-It Cannister, 1 gram). Fifty tablets were packaged in a round, white 1500 mL bottle with a screw cap over an induction seal. Impurities were assayed by HPLC. When stored at 25° C./60% RH with desiccant for 3 months, no increase in total impurities was observed. When stored at 40° C./75% RH with desiccant for 3 months, total impurities increased only by 0.3%. When stored at 40° C./75% RH without desiccant for 3 months, total impurities still increased by 1.1%. As tabulated below, the presence of desiccant appears to further increase the stability of the ansolvate form D. Even though the dissolution rate of tablets containing polymorph D from one batch was below specification (<70%) at an initial test as well as after 3 months at 25° C./60% RH with desiccant, the subsequent batches met the required specification.

[2] = Assay and impurities by HPLC of tablets on storage; design: key to Individual Impurities RRT = 0.74 / Individual Impurities RRT = 0.83 / TLK 236 RRT = 0.88 / Individual Impurities RRT = 0.94 / Individual Impurities RRT = 0.96 / Total impurities / Individual Impurities RRT = 0.80 / Individual Impurities RRT = 0.81 / Individual Impurities RRT = 0.86 / Individual Impurities RRT = 0.99: impurity content in %
Excerpt: As used herein, “impurity” refers to one or more of: TLK 236, another polymorphic form of ezatiostat hydrochloride including without limitation form A, B, C, E, or F, and any other compound other than ezatiostat hydrochloride ansolvate, which may be identified by HPLC. TLK 236 is a monoester derived from the partial hydrolysis of ezatiostat where the phenyl glycine moiety remains esterified.
(§2) As described above, form E converts to form B simply during tableting.
as §1

[3] = Tablet dissolution (Q at 45 min); settings: for Dissolution, Mean at 45 min: tablets
Excerpt: Without being bound by theory, a higher dissolution rate relates to a higher amount of the active agent in the gastric fluid, which in turn relates to higher bioavailability of the active agent. A high bioavailability is desired, for example and without limitation, for reducing inter patient variability of drug exposure for a orally administered agent such as ezatiostat hydrochloride. […] The aqueous solubility can be measured in a variety of aqueous solvents, including without limitation, water, 0.9% aqueous NaCl, 5% dextrose for injection, phosphate buffered saline, and generally aqueous solutions having a pH of less than about 5. Such solvents may include suitable buffers and other salts. […]
as §1

[4] = Water content of tablets on storage
Description: Karl Fischer analyses for water determination were performed on a Mettler Toledo DL39 Karl Fischer titrator. About 10-15 mg of sample was placed in the KF titration vessel containing approximately 100 mL of Hydranal®—Coulomat AD reagent and mixed for 60 seconds to ensure dissolution. The dissolved sample was then titrated by means of a generator electrode which produces iodine by electrochemical oxidation. […]
as §1

[5] = X-ray diffraction, polymorphic form in tablets; settings: for X-ray Diffraction: tablets
Description: X-ray powder diffraction (XRPD) analyses were performed on a Shimadzu XRD-6000 X-ray powder diffractometer using Cu Kα radiation from a long fine focus X-ray tube, operated at 40 kV, 40 mA. The divergence and scattering slits were set at 1° and the receiving slit was set at 0.15 mm. Diffracted radiation was detected by a NaI scintillation detector. A θ-2θ continuous scan at 3°/min (0.4 sec/0.02° step) from 2.5°-40° 2θ was used. A silicon standard was analyzed to check alignment of the instrument. Data were collected and analyzed using XRD-6000 v.4.1 software.
Stress experiments: solids were stressed under different temperature and/or relative humidity (RH) environments for a measured time period. Specific RH values were achieved by placing the sample inside sealed chambers containing saturated salt solutions. Samples were analyzed by XRPD immediately after removal from the stress environment.
as §2, §1

[6] = Assay and impurities by HPLC of tablets on storage; design: key to Individual Impurities RRT = 0.74 / TLK 236 RRT = 0.88 / Individual Impurities RRT = 0.96 / Total impurities: impurity content in %; settings: 6 Month at 40° C./75% RH without desiccant, hydrochloride
[7] = 3 Month at 25° C./60% RH with desiccant
[8] = 3 Month at 40° C./75% RH with desiccant
[9] = 3 Month at 40° C./75% RH without desiccant
[10] = 6 Month at 40° C./75% RH without desiccant, hydrochloride
[11] = 3 Month at 40° C./75% RH without desiccant, hydrochloride
[12] = 3 Month at 40° C./75% RH without desiccant, listed as Form D Ansolvate, hydrochloride
[13] = Initial, listed as Form D Ansolvate, hydrochloride

CCOC(=O)[C@@H](N)CCC(=O)N[C@@H](CSCc1ccccc1)C(=O)N[C@@H](C(=O)OCC)c1ccccc1.Cl [Polymorph Form D, ezatiostat hydrochloride]
Description [1, 7]: White round | Description [1, 8]: Off-white | Description [1, 9]: Off-white | Description [1, 10]: Brown round | Description ([1]; Initial): White round | Assay (HPLC) [2, 7]: 99.7 % Label Claim | Individual Impurities RRT = 0.74/0.72 [2, 7]: 0.16 | Individual Impurities RRT = 0.96 [2, 7]: 0.19 | TLK 236 RRT = 0.88 [2, 7]: 0.34 | Total impurities [2, 7]: 0.7 | Assay (HPLC) [2, 8]: 100.8 % Label Claim | Individual Impurities RRT = 0.74/0.72 [2, 8]: 0.16 | Individual Impurities RRT = 0.83 [2, 8]: 0.09 | Individual Impurities RRT = 0.94 [2, 8]: 0.06 | Individual Impurities RRT = 0.96 [2, 8]: 0.19 | TLK 236 RRT = 0.88 [2, 8]: 0.53 | Total impurities [2, 8]: 1.0 | Individual Impurities RRT = 0.74/0.72 [2, 9]: 0.18 | Assay (HPLC) [2, 11]: 100.3 % Label Claim | Individual Impurities RRT = 0.74 [2, 11]: 0.21 | Individual Impurities RRT = 0.83 [2, 11]: 0.07 | Individual Impurities RRT = 0.94 [2, 11]: 0.07 | Individual Impurities RRT = 0.96 [2, 11]: 0.19 | TLK 236 RRT = 0.88 [2, 11]: 1.33 | Total impurities [2, 11]: 1.9 | Assay (HPLC) [2, 12]: 100.3 % Label Claim | Individual Impurities RRT = 0.83 [2, 12]: 0.08 | Individual Impurities RRT = 0.94 [2, 12]: 0.07 | Individual Impurities RRT = 0.96 [2, 12]: 0.18 | TLK 236 RRT = 0.88 [2, 12]: 1.3 | Total impurities [2, 12]: 1.8 | Individual Impurities RRT = 0.83 [2, 10]: 0.09 | increase in total impurities ([2]; 25° C./60% RH with desiccant for 3 months): no increase | increase in total impurities ([2]; 40° C./75% RH with desiccant for 3 months): 0.3% | increase in total impurities ([2]; 40° C./75% RH without desiccant for 3 months): 1.1% | Individual Impurities RRT = 0.74/0.72 ([2]; Initial): 0.21 | Assay (HPLC) ([2]; Initial, hydrochloride): 101.4 % Label Claim | Individual Impurities RRT = 0.74 ([2]; Initial, hydrochloride): 0.21 | Individual Impurities RRT = 0.96 ([2]; Initial, hydrochloride): 0.18 | TLK 236 RRT = 0.88 ([2]; Initial, hydrochloride): 0.35 | Total impurities ([2]; Initial, hydrochloride): 0.7 | Assay (HPLC) [2, 13]: 101.4 % Label Claim | Individual Impurities RRT = 0.96 [2, 13]: 0.18 | TLK 236 RRT = 0.88 [2, 13]: 0.35 | Total impurities [2, 13]: 0.7 | aqueous dissolution rate ([3]; as part of a tablet, measured in 0.1 molar HCl): higher aqueous dissolution rate than polymorphic form E | Dissolution, Mean at 45 min ([3]; 3 Month at 25° C./60% RH with desiccant, listed as Form D Ansolvate, hydrochloride): Mean = 46 % of label claim | Dissolution, Mean at 45 min ([3]; 3 Month at 25° C./60% RH with desiccant, listed as polymorph D, hydrochloride): < 70 % of label claim | Dissolution, Mean at 45 min [3, 8]: Mean = 76 % of label claim | Dissolution, Mean at 45 min [3, 11]: Mean = 88 % of label claim | Dissolution, Mean at 45 min [3, 12]: Mean = 88 % of label claim | Dissolution, Mean at 45 min [3, 10]: Mean = 81 % of label claim | Dissolution, Mean at 45 min ([3]; Initial, hydrochloride): Mean = 51 % of label claim | Dissolution, Mean at 45 min [3, 13]: Mean = 51 % of label claim | Dissolution, Mean at 45 min ([3]; Initial, listed as polymorph D, hydrochloride): < 70 % of label claim | Water Content [4, 7]: 0.5% | Water Content [4, 8]: 0.6% | Water Content [4, 11]: 0.8% | Water Content [4, 12]: 0.8% | Water Content [4, 10]: 0.8% | Water Content ([4]; Initial, hydrochloride): 0.9% | Water Content [4, 13]: 0.9% | polymorphic conversion on storage ([5]; 40° C. and 75% RH without a desiccant, form D 6 months, form E 3 months, listed as ansolvate form D, hydrochloride): resistance to conversion to a solvate form | X-ray Diffraction [5, 7]: Polymorph D | X-ray Diffraction [5, 8]: Polymorph D | X-ray Diffraction [5, 11]: Polymorph D | X-ray Diffraction [5, 12]: Polymorph D | X-ray Diffraction [5, 10]: Polymorph D | X-ray Diffraction ([5]; Initial, hydrochloride): Polymorph D | X-ray Diffraction [5, 13]: Polymorph D | Assay (HPLC) [6]: 96.5 % Label Claim | Individual Impurities RRT = 0.59/0.62 [6]: 0.08 | Individual Impurities RRT = 0.74 [6]: 0.20 | Individual Impurities RRT = 0.96 [6]: 0.23 | TLK 236 RRT = 0.88 [6]: 2.07 | Total impurities [6]: 2.7
